Calls of active or inactive are those of the source. The calls are words filed in the database; no cut-off is given here.
Experiments:
Mus musculus [1] = experiment: (§1) Antihyperlipidemic activity in Triton WR-1339 induced hyperlipidemic male Swiss albino mouse model assessed as change in carotid artery endothelial cells at 13 mg/kg, po pre-treated with compound for 6 days followed by triton WR-1339 induction and measured after 24 hrs by H&E staining based analysis; type: functional, organism-based; conditions: time 7.0 day
Mus musculus [2] = experiment: (§2) Antihyperlipidemic activity against Triton WR-1339 induced hyperlipidemic male Swiss albino mouse model assessed as LDL level in mouse blood at 13 mg/kg, po pre-treated with compound for 6 days followed by triton WR-1339 induction and measured after 24 hrs (reference value: 231.9 +/- 0.7 mg/dL); type: functional; conditions: time 7 day
Mus musculus [3] = experiment: Antihyperlipidemic activity against Triton WR-1339 induced hyperlipidemic male Swiss albino mouse model assessed as HDL level in mouse blood at 13 mg/kg, po pre-treated with compound for 6 days followed by triton WR-1339 induction and measured after 24 hrs (reference value: 97.4 +/- 1.2 mg/dL); type: functional; conditions: time 7 day
Mus musculus [4] = experiment: Antihyperlipidemic activity against Triton WR-1339 induced hyperlipidemic male Swiss albino mouse model assessed as VLDL level in mouse blood at 13 mg/kg, po pre-treated with compound for 6 days followed by triton WR-1339 induction and measured after 24 hrs (reference value: 97.1 +/- 1 mg/dL); type: functional; conditions: time 7 day
Mus musculus [5] = experiment: Antihyperglycemic activity against Triton WR-1339 induced hyperlipidemic male Swiss albino mouse model assessed as blood glucose level at 13 mg/kg, po pre-treated with compound for 6 days followed by triton WR-1339 induction and measured after 24 hrs by glucose meter analysis (reference value: 121.6 +/- 7.8); type: functional; conditions: time 7 day
Mus musculus [6] = experiment: as §1, with “amelioration of islet cell disruption” for “change in carotid artery endothelial cells”, “based microscopic” for “based”; type: functional, organism-based; conditions: time 7.0 day
Mus musculus [7] = experiment: Antihyperlipidemic activity against Triton WR-1339 induced hyperlipidemic male Swiss albino mouse model assessed as TG level in mouse blood at 13 mg/kg, po pre-treated with compound for 6 days followed by triton WR-1339 induction and measured after 24 hrs (reference value: 485.3 +/- 4.8 mg/dL); type: functional; conditions: time 7 day
HepaRG [8] = experiment: Cytotoxicity against human HepaRG cells assessed as mortality rate at 25 uM incubated for 30 mins by LDH assay relative to control; type: functional; conditions: 0.5 h
Mus musculus [9] = experiment: Antihyperlipidemic activity in Triton WR-1339 induced hyperlipidemic male Swiss albino mouse model assessed as histopathological change in kidney at 13 mg/kg, po pre-treated with compound for 6 days followed by triton WR-1339 induction and measured after 24 hrs by H&E staining based analysis; type: functional, organism-based; conditions: time 7.0 day
Mus musculus [10] = experiment: as §2, with “total cholesterol” for “LDL”, “426.3” for “231.9”, “2” for “0.7”; type: functional; conditions: time 7 day
HepaRG [11] = experiment: Cytotoxicity against human HepaRG cells assessed as mortality rate at 250 uM incubated for 30 mins by LDH assay relative to control; type: functional; conditions: 0.5 h

CC(C)OC(=O)C(C)(C)Oc1ccc(C(=O)c2ccc(Cl)cc2)cc1 [FENOFIBRATE]
Activity (Mus musculus [1]): Active | Activity (Mus musculus [2]): 54.4 mg/dL | Activity (Mus musculus [3]): 58.7 mg/dL | Activity (Mus musculus [4]): 20.6 mg/dL | Activity (Mus musculus [5]): 75 mg/dL | Activity (Mus musculus [6]): Active | Activity (Mus musculus [7]): 103 mg/dL | Activity (HepaRG [8]): 12% | Activity (Mus musculus [9]): Active | Activity (Mus musculus [10]): 135.7 mg/dL | Activity (HepaRG [11]): 18%

Source: ChEMBL document CHEMBL6134831 (Eur J Med Chem, 2025)
